Source: patent publication US20260201008A1, “SECRETIN-DERIVED GLP1R SELECTIVE AGONISTS” (GUBRA A/S, priority 2023, published 2026)
Read-outs that look alike come from different tables or passages of the source. Numbered stars: 1 amine (or outer) side, 2 acyl side, 3 side chain; on linkers, the order of the positions; unused ones are H or OH. Square brackets hold non-standard residues; d marks the D form. Side chains are listed from the residue outwards. Peptide text beside a SMILES is read from it. * marks the point of attachment. C20 diacid = O=C(O)CCCCCCCCCCCCCCCCCCC(=O)*; γGlu = O=C(O)[C@H](CCC(=O)[*:2])N[*:1]; AEEA = NCCOCCOCC(=O)O; Aib = CC(C)(N)C(=O)O

What was measured:
SCTR = SCTR (Homo sapiens, UniProt P47872); experiment: hSCTR potency, cAMP accumulation in CHO-K1 cells stably overexpressing hSCTR; assay type: cell-based; design: alternatively Euroscreen ES-712-AF; FAST-0161L; host or cells: CHO-K1; settings: cAMP accumulation
Sequence of SCTR (P47872 23-440): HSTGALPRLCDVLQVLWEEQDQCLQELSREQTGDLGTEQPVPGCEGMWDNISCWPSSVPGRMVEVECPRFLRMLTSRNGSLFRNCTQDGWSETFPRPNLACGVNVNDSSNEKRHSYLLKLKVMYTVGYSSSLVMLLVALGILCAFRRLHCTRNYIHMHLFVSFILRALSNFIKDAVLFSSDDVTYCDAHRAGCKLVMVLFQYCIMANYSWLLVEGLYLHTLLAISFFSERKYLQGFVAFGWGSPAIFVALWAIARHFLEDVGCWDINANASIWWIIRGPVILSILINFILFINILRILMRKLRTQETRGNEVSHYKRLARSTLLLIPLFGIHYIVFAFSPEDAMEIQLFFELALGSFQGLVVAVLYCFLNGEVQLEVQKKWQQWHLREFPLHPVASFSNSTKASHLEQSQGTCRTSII
Summary of the method: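 In this Gs cAMP assay, stably transfected CHO-K1 hSCTR cells were stimulated at room temperature for 30 min in IBMX-containing buffer. Time-resolved FRET gave the signal. Replicates were increased when the top concentration changed or EC50 values differed 5-fold.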

GLP1R = GLP1R (Homo sapiens, UniProt P43220); experiment: hGLP1R potency, cAMP accumulation in CHO-K1 cells stably overexpressing hGLP1R; assay type: cell-based; design: host or cells: CHO-K1; settings: for EC50: cAMP accumulation; for SCTR EC50/GLP1R EC50 ratio: cAMP accumulation in CHO-K1 cells
Sequence of GLP1R (P43220 24-463): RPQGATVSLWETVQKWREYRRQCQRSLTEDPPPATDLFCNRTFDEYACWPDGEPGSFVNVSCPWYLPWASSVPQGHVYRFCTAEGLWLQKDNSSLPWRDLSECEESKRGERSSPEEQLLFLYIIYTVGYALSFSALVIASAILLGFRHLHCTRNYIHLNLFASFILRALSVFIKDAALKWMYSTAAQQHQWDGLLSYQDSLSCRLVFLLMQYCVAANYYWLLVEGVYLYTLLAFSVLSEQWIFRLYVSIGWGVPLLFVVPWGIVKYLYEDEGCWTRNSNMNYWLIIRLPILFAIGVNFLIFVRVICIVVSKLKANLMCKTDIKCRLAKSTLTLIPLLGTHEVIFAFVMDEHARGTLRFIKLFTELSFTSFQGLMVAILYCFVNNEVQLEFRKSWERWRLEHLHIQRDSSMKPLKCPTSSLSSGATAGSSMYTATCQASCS
Summary of the method: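 In the presence of 0.5 mM IBMX, compounds stimulated the cells for 30 minutes at room temperature. Accumulated cAMP was then detected by TR-FRET, with EC50 values fitted by variable-slope nonlinear regression.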

[1] = Fibril formation of crude library peptides (Thioflavin T); assay type: physicochemical; design: key: average ThT fluorescence emission at 480 nm (ex 450 nm), raw units; settings: Physical stability of peptides
Method: (§1) Peptides were dissolved in buffers (50 mM sodium acetate at pH 4.0, or 50 mM sodium phosphate at pH 7.0) to 267 μM and incubated for 1-2 hours at room temperature. The samples were then divided into two replicates of 80 μl in a black 384 well plate (μ-clear, Greiner Bio-One) and mixed with Thioflavin T (ThT) to a final concentration of 4 μM. The plate was centrifuged for 2 min at 2000 rpm to remove air bubbles, sealed, and placed in a plate reader (CLARIOstar, BMG). Firstly, turbidity of the samples was measured as the absorbance at 600 nm. Secondly, the plate reader temperature was set to 40° C. and the fluorescence was measured every 10 min for 72 hours by exciting the ThT at 450 nm and measuring the emission at 480 nm. Samples were stressed by shaking the plate at 700 rpm (linear) for five minutes before every measurement, and fibril formation was determined as the average emission for each sample.

[2] = Turbidity of crude library peptides (absorbance at 600 nm); assay type: physicochemical; settings: Physical stability of peptides
Method: as §1

[3] = CHO-K1 cells overexpressing hSCTR, read-out: hSCTR pEC50 (converted)
[4] = CHO-K1 cells overexpressing hGLP1R, read-out: hGLP1R pEC50 (converted)
[5] = selectivity for hGLP1R over hSCTR
[6] = CHO-K1 cells stably overexpressing hSCTR, read-out: hSCTR potency (pEC50) (converted)
[7] = CHO-K1 cells stably overexpressing hGLP1R, read-out: hGLP1R potency (pEC50) (converted)
[8] = selectivity ratio, hSCTR vs hGLP1R

Compound | EC50 (SCTR; [3]) | EC50 (GLP1R; [4]) | SCTR EC50/GLP1R EC50 ratio (GLP1R; [5]) | Fibril formation [1] | Turbidity (pH 7) [2] | EC50 (SCTR; [6]) | EC50 (GLP1R; [7]) | SCTR EC50/GLP1R EC50 ratio (GLP1R; [8]) | EC50 (SCTR; CHO-K1 cells overexpressing hSCTR, read-out: pEC50 hSCTR (converted)) | Selectivity (GLP1R; SCTR EC50/GLP1R EC50 ratio) | EC50 (GLP1R; CHO-K1 cells overexpressing hGLP1R, read-out: pEC50 hGLPR1 (converted))
CC(C)C[C@H](NC(=O)[C@H](C)NC(=O)[C@H](CCC(=O)O)NC(=O)[C@H](CCC(=O)O)NC(=O)[C@H](CCCCNC(=O)COCCOCCNC(=O)COCCOCCNC(=O)CC[C@H](NC(=O)CCCCCCCCCCCCCCCCCCC(=O)O)C(=O)O)NC(=O)[C@H](CC(C)C)NC(=O)[C@H](Cc1ccc(O)cc1)NC(=O)[C@H](CO)NC(=O)[C@@H](NC(=O)[C@H](CC(=O)O)NC(=O)[C@H](CO)NC(=O)[C@@H](NC(=O)[C@H](Cc1ccccc1)NC(=O)[C@@H](NC(=O)CNC(=O)[C@H](CCC(=O)O)NC(=O)C(C)(C)NC(=O)[C@@H](N)Cc1c[nH]cn1)[C@@H](C)O)[C@@H](C)O)C(C)C)C(=O)N[C@@H](CC(C)C)C(=O)N[C@@H](CCC(N)=O)C(=O)N[C@@H](CCCNC(=N)N)C(=O)N[C@@H](Cc1ccccc1)C(=O)N[C@@H](CC(C)C)C(=O)N[C@@H](CCC(=O)O)C(=O)N[C@@H](Cc1c[nH]cn1)C(=O)N[C@@H](CC(C)C)C(=O)N[C@H](C(N)=O)C(C)C [compound 132] (H-H[Aib]EGTFTSDVSYLK([AEEA-AEEA-γGlu-C20 diacid])EEALLQRFLEHLV-NH2) | 200 nM | 0.02 nM | 10415 | 3358 | 0.08 | – | – | – | – | – | –
CC(C)C[C@H](NC(=O)[C@H](Cc1ccccc1)NC(=O)[C@H](CCCNC(=N)N)NC(=O)[C@H](CCC(N)=O)NC(=O)[C@H](CC(C)C)NC(=O)C(C)(C)NC(=O)[C@H](C)NC(=O)[C@H](CCC(=O)O)NC(=O)[C@H](CCC(=O)O)NC(=O)[C@H](CCCCNC(=O)COCCOCCNC(=O)COCCOCCNC(=O)CC[C@H](NC(=O)CCCCCCCCCCCCCCCCCCC(=O)O)C(=O)O)NC(=O)[C@H](CC(C)C)NC(=O)[C@H](Cc1ccc(O)cc1)NC(=O)[C@H](CO)NC(=O)[C@@H](NC(=O)[C@H](CC(=O)O)NC(=O)[C@H](CO)NC(=O)[C@@H](NC(=O)[C@H](Cc1ccccc1)NC(=O)[C@@H](NC(=O)CNC(=O)[C@@H](NC(=O)C(C)(C)NC(=O)[C@@H](N)Cc1c[nH]cn1)C(C)C)[C@@H](C)O)[C@@H](C)O)C(C)C)C(=O)N[C@@H](CCC(=O)O)C(=O)N[C@@H](Cc1c[nH]cn1)C(=O)N[C@@H](CC(C)C)C(=O)N[C@H](C(N)=O)C(C)C [compound 155] (H-H[Aib]VGTFTSDVSYLK([AEEA-AEEA-γGlu-C20 diacid])EEA[Aib]LQRFLEHLV-NH2) | 25100 nM | 0.0126 nM | 1853532 | 4368 | 0.08 | – | – | – | – | – | –
CC(C)C[C@H](NC(=O)[C@H](Cc1ccccc1)NC(=O)[C@H](CCCNC(=N)N)NC(=O)[C@H](CCC(N)=O)NC(=O)[C@H](CC(C)C)NC(=O)C(C)(C)NC(=O)[C@H](C)NC(=O)[C@H](CCC(=O)O)NC(=O)[C@H](CCC(=O)O)NC(=O)[C@H](Cc1ccc(O)cc1)NC(=O)[C@H](CC(C)C)NC(=O)[C@H](Cc1ccc(O)cc1)NC(=O)[C@H](CO)NC(=O)[C@@H](NC(=O)[C@H](CC(=O)O)NC(=O)[C@H](CO)NC(=O)[C@@H](NC(=O)[C@H](Cc1ccccc1)NC(=O)[C@@H](NC(=O)CNC(=O)[C@H](CCC(=O)O)NC(=O)C(C)(C)NC(=O)[C@@H](N)Cc1c[nH]cn1)[C@@H](C)O)[C@@H](C)O)C(C)C)C(=O)N[C@@H](CCC(=O)O)C(=O)N[C@@H](CCCCNC(=O)COCCOCCNC(=O)COCCOCCNC(=O)CC[C@H](NC(=O)CCCCCCCCCCCCCCCCCCC(=O)O)C(=O)O)C(=O)N[C@@H](CC(C)C)C(=O)N[C@H](C(N)=O)C(C)C [compound 143] (H-H[Aib]EGTFTSDVSYLYEEA[Aib]LQRFLEK([AEEA-AEEA-γGlu-C20 diacid])LV-NH2) | 794 nM | 0.01 nM | 88736 | 5733 | 0.08 | – | – | – | – | – | –
CC[C@H](C)[C@H](NC(=O)[C@H](CO)NC(=O)[C@@H](NC(=O)[C@H](CC(=O)O)NC(=O)[C@H](CO)NC(=O)[C@@H](NC(=O)[C@H](Cc1ccccc1)NC(=O)[C@@H](NC(=O)CNC(=O)[C@H](CCC(=O)O)NC(=O)C(C)(C)NC(=O)[C@@H](N)Cc1c[nH]cn1)[C@@H](C)O)[C@@H](C)O)C(C)C)C(=O)N[C@@H](CC(C)C)C(=O)N[C@@H](CCCCNC(=O)COCCOCCNC(=O)COCCOCCNC(=O)CC[C@H](NC(=O)CCCCCCCCCCCCCCCCCCC(=O)O)C(=O)O)C(=O)N[C@@H](CCC(=O)O)C(=O)N[C@@H](CCC(=O)O)C(=O)N[C@@H](C)C(=O)NC(C)(C)C(=O)N[C@@H](CC(C)C)C(=O)N[C@@H](CCC(N)=O)C(=O)N[C@@H](CCCNC(=N)N)C(=O)N[C@@H](Cc1ccccc1)C(=O)N[C@@H](CC(C)C)C(=O)N[C@@H](CCC(=O)O)C(=O)N[C@@H](Cc1c[nH]cn1)C(=O)N[C@@H](CC(C)C)C(=O)N[C@H](C(N)=O)C(C)C [compound 172] (H-H[Aib]EGTFTSDVSILK([AEEA-AEEA-γGlu-C20 diacid])EEA[Aib]LQRFLEHLV-NH2) | 20 nM | 0.0158 nM | 1279 | 2942 | 0.08 | – | – | – | – | – | –
CC[C@H](C)[C@H](NC(=O)[C@H](Cc1ccccc1)NC(=O)[C@H](CCCNC(=N)N)NC(=O)[C@H](CCC(N)=O)NC(=O)[C@H](CC(C)C)NC(=O)[C@H](C)NC(=O)[C@H](C)NC(=O)CNC(=O)[C@H](CCC(=O)O)NC(=O)[C@H](CC(C)C)NC(=O)[C@H](CC(C)C)NC(=O)CNC(=O)[C@H](CO)NC(=O)[C@H](Cc1ccc(O)cc1)NC(=O)[C@H](CC(=O)O)NC(=O)[C@H](CO)NC(=O)[C@@H](NC(=O)[C@H](Cc1ccccc1)NC(=O)[C@@H](NC(=O)CNC(=O)[C@H](CCC(=O)O)NC(=O)C(C)(C)NC(=O)[C@@H](N)Cc1c[nH]cn1)[C@@H](C)O)[C@@H](C)O)C(=O)N[C@@H](CCC(N)=O)C(=O)N[C@@H](Cc1c[nH]c2ccccc12)C(=O)N[C@@H](CC(C)C)C(=O)N[C@H](C(N)=O)C(C)C [compound 195] (H-H[Aib]EGTFTSDYSGLLEGAALQRFIQWLV-NH2) | – | – | – | 144234 | 0.25 | 10 nM | 0.0251 nM | 419 | – | – | –
CC[C@H](C)[C@H](NC(=O)[C@H](Cc1ccccc1)NC(=O)[C@H](CCCNC(=N)N)NC(=O)[C@H](CCC(N)=O)NC(=O)[C@H](CC(C)C)NC(=O)[C@H](C)NC(=O)[C@H](C)NC(=O)CNC(=O)[C@H](CCC(=O)O)NC(=O)[C@H](CC(C)C)NC(=O)[C@H](CC(C)C)NC(=O)[C@H](Cc1ccc(O)cc1)NC(=O)[C@H](CO)NC(=O)[C@H](Cc1ccc(O)cc1)NC(=O)[C@H](CC(=O)O)NC(=O)[C@H](CO)NC(=O)[C@@H](NC(=O)[C@H](Cc1ccccc1)NC(=O)[C@@H](NC(=O)CNC(=O)[C@H](CCC(=O)O)NC(=O)C(C)(C)NC(=O)[C@@H](N)Cc1c[nH]cn1)[C@@H](C)O)[C@@H](C)O)C(=O)N[C@@H](CCC(N)=O)C(=O)N[C@@H](Cc1c[nH]c2ccccc12)C(=O)N[C@@H](CC(C)C)C(=O)N[C@H](C(N)=O)C(C)C [compound 201] (H-H[Aib]EGTFTSDYSYLLEGAALQRFIQWLV-NH2) | – | – | – | 30208 | 0.30 | 12.6 nM | 0.0126 nM | 940 | – | – | –
CC(C)C[C@H](NC(=O)[C@H](Cc1ccccc1)NC(=O)[C@H](CCCNC(=N)N)NC(=O)[C@H](CCC(N)=O)NC(=O)[C@@H](NC(=O)[C@H](C)NC(=O)[C@H](C)NC(=O)[C@H](CCC(=O)O)NC(=O)[C@H](CCC(=O)O)NC(=O)[C@H](CCCCNC(=O)COCCOCCNC(=O)COCCOCCNC(=O)CC[C@H](NC(=O)CCCCCCCCCCCCCCCCCCC(=O)O)C(=O)O)NC(=O)[C@H](CC(C)C)NC(=O)[C@H](CCCNC(=N)N)NC(=O)[C@H](CO)NC(=O)[C@@H](NC(=O)[C@H](CC(=O)O)NC(=O)[C@H](CO)NC(=O)[C@@H](NC(=O)[C@H](Cc1ccccc1)NC(=O)[C@@H](NC(=O)CNC(=O)[C@H](CCC(=O)O)NC(=O)C(C)(C)NC(=O)[C@@H](N)Cc1c[nH]cn1)[C@@H](C)O)[C@@H](C)O)C(C)C)[C@@H](C)O)C(=O)N[C@@H](CCC(=O)O)C(=O)N[C@@H](Cc1c[nH]cn1)C(=O)N[C@@H](CC(C)C)C(=O)N[C@H](C(N)=O)C(C)C [compound 65] (H-H[Aib]EGTFTSDVSRLK([AEEA-AEEA-γGlu-C20 diacid])EEAATQRFLEHLV-NH2) | – | – | – | 9674 | 0.09 | – | – | – | 25.1 nM | 6482 | 0.00316 nM
